Blank lines part the entries; values can stand above or below the compound they belong to.
Key:
[1] = Toxicity in BALB/c nude mouse xenografted with human HCT-116 cells assessed as as body weight loss at 100 mg/kg, ip upto 20 days; format: organism-based; conditions: in vivo, 480 h, time < 20 day
[2] = Toxicity in BALB/c nude mouse xenografted with human HCT-116 cells assessed as proliferation of hepatocyte in liver at 100 mg/kg, ip upto 20 days; format: organism-based; conditions: in vivo, 480 h, time < 20 day
[3] = Toxicity in BALB/c nude mouse xenografted with human HCT-116 cells assessed as prominent of nucleolus in liver at 100 mg/kg, ip upto 20 days; format: organism-based; conditions: in vivo, 480 h, time < 20 day
[4] = Toxicity in BALB/c nude mouse xenografted with human HCT-116 cells assessed as hyperplasia of renal tubular epithelium in kidney at 100 mg/kg, ip upto 20 days; format: organism-based; conditions: in vivo, 480 h, time < 20 day
[5] = Toxicity in BALB/c nude mouse xenografted with human HCT-116 cells assessed as partial pyknosis of nuclei in liver at 100 mg/kg, ip upto 20 days; format: organism-based; conditions: in vivo, 480 h, time < 20 day
[6] = Metabolic stability in human liver microsomes assessed as half life by LC-MS/MS analysis; format: ADME, Microsome
[7] = test system: HCT-116; test: cells; conditions: Homo sapiens, HCT-116, 72 h
Description: Antiproliferative activity against human HCT-116 cells incubated for 72 hrs by MTT assay

[8] = Toxicity in BALB/c nude mouse xenografted with human HCT-116 cells assessed as degeneration of hepatocyte in liver at 100 mg/kg, ip upto 20 days; format: organism-based; conditions: in vivo, 480 h, time < 20 day
[9] = Toxicity in BALB/c nude mouse xenografted with human HCT-116 cells assessed as cytoplasmic acidophilia in liver at 100 mg/kg, ip upto 20 days; format: organism-based; conditions: in vivo, 480 h, time < 20 day
[10] = test system: HCT-116; test: Antitumor activity against human HCT-116 cells xenografted in BALB/c nude mouse assessed as tumor growth inhibition at 100 mg/kg, ip for 20 days relative to control; format: functional; conditions: time 20 day
[11] = Metabolic stability in human liver microsomes assessed as clearance measured upto 120 mins by LC-MS/MS analysis; format: ADME, Microsome; conditions: read-out: CLH
[12] = Toxicity in BALB/c nude mouse xenografted with human HCT-116 cells assessed as change in cell structure in liver at 100 mg/kg, ip upto 20 days; format: organism-based; conditions: in vivo, 480 h, time < 20 day
[13] = test system: HCT-116; test: Induction of apoptosis in human HCT-116 cells assessed as total apoptotic cells at 10 uM measured after 24 hrs by FITC annexin-V/PI staining based flow cytometric analysis relative to control; format: functional
[14] = Toxicity in BALB/c nude mouse xenografted with human HCT-116 cells assessed as change in cell morphology in liver at 100 mg/kg, ip upto 20 days; format: organism-based; conditions: in vivo, 480 h, time < 20 day
[15] = Toxicity in BALB/c nude mouse xenografted with human HCT-116 cells assessed as obvious tissue lesion in spleen at 100 mg/kg, ip upto 20 days; format: organism-based; conditions: in vivo, 480 h, time < 20 day
[16] = Toxicity in BALB/c nude mouse xenografted with human HCT-116 cells assessed as change in cell structure in spleen at 100 mg/kg, ip upto 20 days; format: organism-based; conditions: in vivo, 480 h, time < 20 day
[17] = test system: HCT-116; test: Induction of apoptosis in human HCT-116 cells assessed as early apoptotic cells at 3 uM measured after 24 hrs by FITC annexin-V/PI staining based flow cytometric analysis (reference value: 3.73%); format: functional
[18] = Toxicity in BALB/c nude mouse xenografted with human HCT-116 cells assessed as change in cell structure in lung at 100 mg/kg, ip upto 20 days; format: organism-based; conditions: in vivo, 480 h, time < 20 day
[19] = test system: HCT-116; test: Induction of apoptosis in human HCT-116 cells assessed as late apoptotic cells at 3 uM measured after 24 hrs by FITC annexin-V/PI staining based flow cytometric analysis (reference value: 5.41%); format: functional
[20] = test system: HCT-116; test: Induction of apoptosis in human HCT-116 cells assessed as early apoptotic cells at 10 uM measured after 24 hrs by FITC annexin-V/PI staining based flow cytometric analysis (reference value: 3.73%); format: functional
[21] = test system: HCT-116; test: Induction of apoptosis in human HCT-116 cells assessed as late apoptotic cells at 10 uM measured after 24 hrs by FITC annexin-V/PI staining based flow cytometric analysis (reference value: 5.41%); format: functional
[22] = test system: HCT-116; test: Induction of apoptosis in human HCT-116 cells assessed as early apoptotic cells at 0.3 uM measured after 24 hrs by FITC annexin-V/PI staining based flow cytometric analysis (reference value: 3.73%); format: functional
[23] = Toxicity in BALB/c nude mouse xenografted with human HCT-116 cells assessed as change in cell structure in kidney at 100 mg/kg, ip upto 20 days; format: organism-based; conditions: in vivo, 480 h, time < 20 day
[24] = target: T1, Glutaminase kidney isoform, mitochondrial (Homo sapiens) (UniProt O94925)
T1 sequence (whole entry): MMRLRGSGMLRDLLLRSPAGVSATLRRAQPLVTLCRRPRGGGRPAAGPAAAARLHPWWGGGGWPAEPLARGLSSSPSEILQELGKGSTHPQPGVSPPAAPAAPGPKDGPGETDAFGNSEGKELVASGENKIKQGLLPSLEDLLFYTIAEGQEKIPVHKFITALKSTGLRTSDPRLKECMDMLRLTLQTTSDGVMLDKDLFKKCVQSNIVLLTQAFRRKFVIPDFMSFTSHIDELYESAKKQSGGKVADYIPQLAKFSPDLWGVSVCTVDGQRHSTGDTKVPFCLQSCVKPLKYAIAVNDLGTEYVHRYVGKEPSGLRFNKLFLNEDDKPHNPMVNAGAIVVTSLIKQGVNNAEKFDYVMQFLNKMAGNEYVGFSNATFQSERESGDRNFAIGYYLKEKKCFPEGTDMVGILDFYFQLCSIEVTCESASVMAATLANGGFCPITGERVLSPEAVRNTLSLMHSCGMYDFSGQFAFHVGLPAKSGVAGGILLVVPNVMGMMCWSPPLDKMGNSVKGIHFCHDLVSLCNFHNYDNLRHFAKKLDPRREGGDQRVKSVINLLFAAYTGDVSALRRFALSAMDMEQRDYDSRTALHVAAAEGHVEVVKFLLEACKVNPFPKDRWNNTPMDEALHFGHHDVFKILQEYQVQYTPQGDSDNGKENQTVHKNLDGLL
Description: Stabilization of GLS1 (unknown origin) assessed as change in melting temperature by protein thermal assay

[25] = Toxicity in BALB/c nude mouse xenografted with human HCT-116 cells assessed as obvious tissue lesion in liver at 100 mg/kg, ip upto 20 days; format: organism-based; conditions: in vivo, 480 h, time < 20 day
[26] = Toxicity in BALB/c nude mouse xenografted with human HCT-116 cells assessed as change in cell morphology in spleen at 100 mg/kg, ip upto 20 days; format: organism-based; conditions: in vivo, 480 h, time < 20 day
[27] = test system: HCT-116; test: Induction of apoptosis in human HCT-116 cells assessed as late apoptotic cells at 1 uM measured after 24 hrs by FITC annexin-V/PI staining based flow cytometric analysis (reference value: 5.41%); format: functional
[28] = test system: HCT-116; test: Induction of apoptosis in human HCT-116 cells assessed as early apoptotic cells at 0.1 uM measured after 24 hrs by FITC annexin-V/PI staining based flow cytometric analysis (reference value: 3.73%); format: functional
[29] = Toxicity in BALB/c nude mouse xenografted with human HCT-116 cells assessed as obvious tissue lesion in heart at 100 mg/kg, ip upto 20 days; format: organism-based; conditions: in vivo, 480 h, time < 20 day
[30] = target: T2, Glutaminase kidney isoform, mitochondrial (Homo sapiens, UniProt O94925); test: Inhibition of GLS1 (unknown origin) preincubated for 10 mins followed by glutamine addition measured after 60 mins
T2 sequence (O94925 whole entry): T1 sequence (whole entry)

[31] = test system: HCT-116; test: Induction of apoptosis in human HCT-116 cells assessed as early apoptotic cells at 1 uM measured after 24 hrs by FITC annexin-V/PI staining based flow cytometric analysis (reference value: 3.73%); format: functional
[32] = Toxicity in BALB/c nude mouse xenografted with human HCT-116 cells assessed as change in cell morphology in heart at 100 mg/kg, ip upto 20 days; format: organism-based; conditions: in vivo, 480 h, time < 20 day
[33] = Toxicity in BALB/c nude mouse xenografted with human HCT-116 cells assessed as change in cell morphology in lung at 100 mg/kg, ip upto 20 days; format: organism-based; conditions: in vivo, 480 h, time < 20 day
[34] = Toxicity in BALB/c nude mouse xenografted with human HCT-116 cells assessed as obvious tissue lesion in lung at 100 mg/kg, ip upto 20 days; format: organism-based; conditions: in vivo, 480 h, time < 20 day
[35] = Toxicity in BALB/c nude mouse xenografted with human HCT-116 cells assessed as change in cell structure in heart at 100 mg/kg, ip upto 20 days; format: organism-based; conditions: in vivo, 480 h, time < 20 day
[36] = test system: HCT-116; test: Induction of apoptosis in human HCT-116 cells assessed as late apoptotic cells at 0.1 uM measured after 24 hrs by FITC annexin-V/PI staining based flow cytometric analysis (reference value: 5.41%); format: functional
[37] = test system: HCT-116; test: Induction of apoptosis in human HCT-116 cells assessed as late apoptotic cells at 0.3 uM measured after 24 hrs by FITC annexin-V/PI staining based flow cytometric analysis (reference value: 5.41%); format: functional
[38] = Toxicity in BALB/c nude mouse xenografted with human HCT-116 cells assessed as change in cell morphology in kidney at 100 mg/kg, ip upto 20 days; format: organism-based; conditions: in vivo, 480 h, time < 20 day
[39] = test system: HCT-116; test: Antiproliferative activity against human HCT-116 cells in presence of alpha-ketoglutarate; format: functional, cell-based
[40] = Toxicity in BALB/c nude mouse xenografted with human HCT-116 cells assessed as obvious tissue lesion in kidney at 100 mg/kg, ip upto 20 days; format: organism-based; conditions: in vivo, 480 h, time < 20 day

half-life [6]: 1.65 h | IC50 [7]: 0.56 µM | microsomal CLint [11]: 35 µL/min/mg
Structure (SMILES): O=C(Cc1cccc(OC(F)(F)F)c1)Nc1ccc(CCCCc2nnc(NC(=O)Cc3ccccn3)s2)nn1
Activity [1]: Non-Toxic | Activity [2]: Toxic | Activity [3]: Toxic | Activity [4]: Toxic | Activity [5]: Toxic | Activity [8]: Toxic | Activity [9]: Toxic | TGI [10]: 43.7%

ΔTm [24]: 15.1 °C | IC50 [30]: 0.007 µM | half-life [6]: 1.8 h | IC50 [7]: 0.061 µM | IC50 [39]: 41.5 µM | microsomal CLint [11]: 32 µL/min/mg
Structure (SMILES): CCCCOc1cccc(CC(=O)Nc2ccc(N3CCC(Nc4nnc(NC(=O)CCCC)s4)CC3)nn2)c1
Activity [12]: Non-Toxic | Activity [13]: ~30% | Activity [1]: Non-Toxic | Activity [14]: Non-Toxic | Activity [15]: Non-Toxic | Activity [16]: Non-Toxic | Activity [17]: 6.54% | Activity [18]: Non-Toxic | Activity [19]: 17.2% | Activity [20]: 8.52% | Activity [21]: 20.5% | Activity [22]: 5.76% | Activity [23]: Non-Toxic | Activity [25]: Non-Toxic | Activity [26]: Non-Toxic | Activity [27]: 12.3% | Activity [28]: 4.9% | Activity [29]: Non-Toxic | Activity [31]: 5.84% | Activity [32]: Non-Toxic | Activity [33]: Non-Toxic | Activity [34]: Non-Toxic | Activity [35]: Non-Toxic | Activity [36]: 7.63% | Activity [37]: 9.88% | TGI [10]: 38.9% | Activity [38]: Non-Toxic | Activity [40]: Non-Toxic
